Results reported in US20180042891A1, “Cancer Cell Apoptosis” (e-Therapeutics plc, priority 2009, published 2018).

Assays:
[1] = test system: 46Br.1G1 fibroblast cells; test: Caspase 3/7 apoptosis and CellTiter-Blue cell viability assay, 24 hour; format: cell-based, human; conditions: 46Br.1G1, 24 hours incubation
Procedure: (§1) Assay was performed at a 24 hour timepoint on 3 melanoma lines (A375, G-361, WM266-4) 2 breast cancer lines (MCF7, MDA-MB-231), fibroblast (46BR.1G1), colon cancer (HCT116), prostate cancer (PC-3), glioblastoma (U373) and non-small cell lung cancer (NSCLC) (DMS-114)
(§2) The above cell lines were maintained in RPMI 1640 culture medium (Sigma, UK) containing 10% (v/v) heat inactivated foetal bovine serum (Sigma, UK) and 2 mM […] at 37° C. in 5% humidified CO2. Cells were harvested, washed, re-suspended into growth medium and counted (Beckman-Coulter Vi-CELL XR). Cells were plated onto the middle 240 wells of 384 tissue culture plates at 1.6×lO^5 to 2.4×lO^5 cells/ml in 12.5 μl/well aliquots. 50 μl of growth media was aliquoted into the outer wells. 2 plates were prepared per cell line. Plates were incubated overnight at 37° C., in 5% humidified CO2.
(§3) Dexanabinol was prepared in growth medium at 2 times the final assay concentration at 125, 31.3, 7.81, 2.00, 0.49, 0.12, 0.031 and O.OO8 μM (DMSO concentration was kept constant across the dilution range at 0.5%).
(§4) Cisplatin was used as a positive control. The final assays concentrations were 10, 2.5, 0.63, 0.156, 0.039, 0.010, 0.002 and 0.0006 μg/ml. […] 12.5 μl of growth media was added to the media control wells. The plates were incubated for 24 hours at 37° C., in 5% humidified CO2.
(§5) Caspase 3/7 levels were assessed by Apo-ONE® Homogeneous Caspase-3/7 assay kit. Fluorescence was measured using a FlexStation® II^384 plate reader at 1, 2, 3 and 4 hours after addition of the caspase substrate. The 4 hour readings were used for analysis.
(§6) The cell viability assay was performed in parallel on the same plate for each line using CellTiter-Blue® (Promega) reagent. Briefly, 25 μl of CellTiter-Blue® (Promega) reagent was added to each well. The plates were shaken for 1 minute at 500 rpm and then incubated at 37° C., 5% CO2 for 4 hours.

[2] = test system: PC-3 prostate cancer cells; test: as above; format: cell-based, human; conditions: PC-3, 24 hours incubation
Procedure: as §1, §2, §3, §4, §5, §6

[3] = test system: WM266-4 melanoma cells; test: as above; format: cell-based, human; conditions: WM266-4, 24 hours incubation
Procedure: as §1, §2, §3, §4, §5, §6

[4] = test system: G-361 melanoma cells; test: as above; format: cell-based, human; conditions: G-361, 24 hours incubation
Procedure: as §1, §2, §3, §4, §5, §6

[5] = test system: MDA-MB-231 breast cancer cells; test: as above; format: cell-based, human; conditions: MDA-MB-231, 24 hours incubation
Procedure: as §1, §2, §3, §4, §5, §6

[6] = test system: HCT116 colon cancer cells; test: as above; format: cell-based; conditions: HCT116, 24 hours incubation
Procedure: as §1, §2, §3, §4, §5, §6

[7] = test system: A375 melanoma cells; test: as above; format: cell-based; conditions: A375, 24 hours incubation
Procedure: as §1, §2, §3, §4, §5, §6

[8] = test system: MCF7 breast cancer cells; test: as above; format: cell-based; conditions: MCF7, 24 hours incubation
Procedure: as §1, §2, §3, §4, §5, §6

[9] = test system: DMS-114 NSCLC cells; test: as above; format: cell-based; conditions: DMS-114, 24 hours incubation
Procedure: as §1, §2, §3, §4, §5, §6

[10] = test system: U373 glioblastoma cells; test: as above; format: cell-based; conditions: U373, 24 hours incubation
Procedure: as §1, §2, §3, §4, §5, §6

[11] = test system: panel of cancer cell lines and a human fibroblast line; test: CellTiter-Blue cell viability (cytotoxicity), whole panel of cell lines; format: cell-based
Procedure: as §1, §2, §3
(§7) The final assays concentrations were 10, 2.5, 0.63, 0.156, 0.039, 0.010, 0.002 and 0.0006 μg/ml. […] 12.5 μl of growth media was added to the media control wells. The plates were incubated for 24 hours at 37° C., in 5% humidified CO2.
as §6

[12] = as above; format: cell-based; conditions: human; at the highest concentration; read-out: loss in cell viability
Procedure: as §1, §2, §3, §7, §6

[13] = biological target: CDK5 (Homo sapiens, UniProt Q00535); test: Direct assay against CDK5; format: biochemical; conditions: when directly assayed
[14] = test system: Aspc-1; set-up: dose or concentration left out as unconfirmed; conditions: cited from earlier work
[15] = test system: panel of cancer cell lines and a human fibroblast line; test: Apo-ONE Caspase-3/7 apoptosis assay, whole panel of cell lines; format: cell-based
Procedure: as §1, §2, §3
Cisplatin was used as a positive control. […]
as §5

[16] = test system: Panc-1 cells; set-up: dose or concentration left out as unconfirmed; conditions: at this same concentration; cited from earlier work
[17] = test system: melanoma cell lines (A375, Malme-3M, UACC62); conditions: previous studies, WO '700; read-out: decreased growth, IC50 value; cited from earlier work
[18] = biological target: CDK2 (Homo sapiens, UniProt P24941); test: Direct assay against CDK2; format: biochemical; conditions: when directly assayed

CDK5, sequence (Q00535 whole entry, species assumed): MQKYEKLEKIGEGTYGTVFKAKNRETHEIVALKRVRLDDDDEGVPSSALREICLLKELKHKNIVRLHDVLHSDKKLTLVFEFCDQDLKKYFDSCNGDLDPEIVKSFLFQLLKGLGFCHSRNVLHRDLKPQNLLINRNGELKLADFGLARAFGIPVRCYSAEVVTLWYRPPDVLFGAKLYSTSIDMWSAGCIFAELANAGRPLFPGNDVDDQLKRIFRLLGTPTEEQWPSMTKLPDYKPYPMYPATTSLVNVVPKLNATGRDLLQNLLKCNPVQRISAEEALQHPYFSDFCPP
CDK5, sequence (Q15078 99-307 partner limits assumed, species assumed): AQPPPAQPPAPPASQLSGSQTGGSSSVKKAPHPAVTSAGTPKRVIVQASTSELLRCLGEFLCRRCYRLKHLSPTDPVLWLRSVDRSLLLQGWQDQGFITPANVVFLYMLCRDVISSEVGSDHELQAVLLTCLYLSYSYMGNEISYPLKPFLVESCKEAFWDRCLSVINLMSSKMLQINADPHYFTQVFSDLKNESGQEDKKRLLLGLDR

## N.N.[Cl][Pt][Cl] [Cisplatin, reference compound]
[1]
  IC50: 21.5 µM
  Rank: apoptosis induction and decrease in proliferation: ** (moderate apoptosis induction and decrease in proliferation (35-70%))
[2]
  IC50: ~58 µM
  Rank: apoptosis induction and decrease in proliferation: * (weak apoptosis induction and decrease in proliferation (<35%))
[3]
  IC50: 62 µM
  Rank: apoptosis induction and decrease in proliferation: * (weak apoptosis induction and decrease in proliferation (<35%))
[4]
  IC50: 18 µM
  Rank: apoptosis induction and decrease in proliferation: ** (moderate apoptosis induction and decrease in proliferation (35-70%))
[5]
  IC50: > 33 µM
  Rank: apoptosis induction and decrease in proliferation: * (weak apoptosis induction and decrease in proliferation (<35%))
[6]
  IC50: 29.5 µM
  Rank: apoptosis induction and decrease in proliferation: ** (moderate apoptosis induction and decrease in proliferation (35-70%))
[7]
  IC50: 21.8 µM
  Rank: apoptosis induction and decrease in proliferation: ** (moderate apoptosis induction and decrease in proliferation (35-70%))
[8]
  IC50: 40.6 µM
  Rank: apoptosis induction and decrease in proliferation: ** (moderate apoptosis induction and decrease in proliferation (35-70%))
[9]
  IC50: ~40.2 µM
  Rank: apoptosis induction and decrease in proliferation: * (weak apoptosis induction and decrease in proliferation (<35%))
[10]
  IC50: > 33 µM
  Rank: apoptosis induction and decrease in proliferation: * (weak apoptosis induction and decrease in proliferation (<35%))

## CCCCCCC(C)(C)c1cc(O)c2c(c1)OC(C)(C)[C@H]1CC=C(CO)C[C@H]21 [Dexanabinol, 1, 1 dimethyl heptyl-(3S,4S)-7-hydroxy-Δ^6-tetrahydrocannabinol]
[1]
  Rank: apoptosis induction and decrease in proliferation: *** (good apoptosis induction and decrease in proliferation (>70%))
[1]; Homo sapiens, Fibroblast
  IC50: 23.1 µM
[2]; Homo sapiens
  IC50: 19.9 µM
[2]
  Rank: apoptosis induction and decrease in proliferation: *** (good apoptosis induction and decrease in proliferation (>70%))
[3]; Homo sapiens, WM 266-4
  IC50: 20.9 µM
[3]
  Rank: apoptosis induction and decrease in proliferation: ** (moderate apoptosis induction and decrease in proliferation (35-70%))
[4]
  Rank: apoptosis induction and decrease in proliferation: *** (good apoptosis induction and decrease in proliferation (>70%))
[4]; Homo sapiens
  IC50: 11 µM
[5]; Homo sapiens
  IC50: 10 to 50 µM
[5]
  Rank: apoptosis induction and decrease in proliferation: ** (moderate apoptosis induction and decrease in proliferation (35-70%))
[6]
  Rank: apoptosis induction and decrease in proliferation: *** (good apoptosis induction and decrease in proliferation (>70%))
[6]; Homo sapiens, HCT-116
  IC50: 22.3 µM
[7]
  Rank: apoptosis induction and decrease in proliferation: ** (moderate apoptosis induction and decrease in proliferation (35-70%))
[7]; Homo sapiens, A-375
  IC50: 19.2 µM
[8]; Homo sapiens
  IC50: 16.2 µM
[8]
  Rank: apoptosis induction and decrease in proliferation: *** (good apoptosis induction and decrease in proliferation (>70%))
[9]
  Rank: apoptosis induction and decrease in proliferation: * (weak apoptosis induction and decrease in proliferation (<35%))
[9]; Homo sapiens
  IC50: 10 to 50 µM
[10]; Homo sapiens, U373 MG
  IC50: 10 to 50 µM
[10]
  Rank: apoptosis induction and decrease in proliferation: * (weak apoptosis induction and decrease in proliferation (<35%))
[11]; Homo sapiens, Fibroblast, read-out: cytotoxic response, IC50 values
  IC50: 10 to 25 µM
[11]; all cell lines
  concentration giving dose-dependent decrease in cell viability: > 10^−5 M
[12]
  cytotoxicity at 24 h, 62.5 µM: 100%
[13]
  direct activity against CDK5: no significant direct activity
[14]
  Aspc-1 proliferation: not affected
[15]
  concentrations at which pro-apoptotic effect and effect on cell number were shown: ≥ 10 µM
[15]; dropped at the highest concentration of 10 μM
  concentration of peak response in apoptosis: 2.5 µM
[16]
  Panc-1 cells proliferation inhibited: 26%
[17]
  IC50: 10 to 20 µM
[18]
  direct activity against CDK2: no significant direct activity
